The values that follow are results of earlier work, collected in paper PMC4226840, “An open-label study to determine the maximum tolerated dose of the multitargeted tyrosine kinase inhibitor CEP-11981 in patients with advanced cancer” (Investigational New Drugs, 2014).

The test system of one data set is VEGFR-2. Conditions: HUVEC; cited from earlier work.
For data set [1], the system named is treatment refractory metastatic colorectal cancer. Details: method as in PMID 23177514. As to conditions: phase III, monotherapy, versus 5.0 months, P = 0.0052; cited from earlier work.

In the case of `Cc1ccc(Nc2nccc(N(C)c3ccc4c(C)n(C)nc4c3)n2)cc1S(N)(=O)=O` [pazopanib], the IC50 in the data set on VEGFR-2 was […]. With `CNC(=O)c1cc(Oc2ccc(NC(=O)Nc3ccc(Cl)c(C(F)(F)F)c3)c(F)c2)ccn1` [regorafenib], in data set [1], the Overall survival was 6.4 months.

As a reminder, the IC50 is the concentration that inhibits the measured activity by half.
